According to patent publication US10336762B2 (priority 2017, dated 2019):
Like-named read-outs stand apart in the source and are kept apart here.

What was measured:
TNFα = assay: cells; format: cell-based, human; details: LPS-stimulated human monocytes, read-out: EC50 TNF
IRAK4 enzyme = IRAK4 enzyme (Homo sapiens (Human), UniProt Q9NWZ3); assay: biochemical; format: biochemical; details: IRAK4 enzyme, 500 μM ATP
[1] = Homo sapiens, Monocyte, TNFα content
[2] = Homo sapiens, Monocyte, TNFα by TR-FRET

Sequence of IRAK4 enzyme (Q9NWZ3 whole entry): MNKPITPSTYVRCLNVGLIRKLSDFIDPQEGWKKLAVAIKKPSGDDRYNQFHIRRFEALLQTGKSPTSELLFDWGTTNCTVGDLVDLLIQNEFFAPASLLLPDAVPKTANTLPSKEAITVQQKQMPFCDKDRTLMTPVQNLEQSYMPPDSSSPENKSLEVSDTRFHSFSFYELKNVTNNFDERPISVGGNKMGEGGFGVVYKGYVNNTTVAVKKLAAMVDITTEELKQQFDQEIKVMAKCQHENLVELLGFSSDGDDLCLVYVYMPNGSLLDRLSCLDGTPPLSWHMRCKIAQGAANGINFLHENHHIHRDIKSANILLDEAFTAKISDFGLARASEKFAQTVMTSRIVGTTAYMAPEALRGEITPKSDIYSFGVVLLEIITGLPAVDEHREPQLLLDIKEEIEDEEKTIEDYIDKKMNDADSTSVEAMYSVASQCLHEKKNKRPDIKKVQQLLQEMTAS

CC(C)(O)[C@H](F)CNC(=O)c1cnc(-c2ccc3cc(C#N)cnn23)cc1N[C@H]1C[C@@H]2C[C@H]1CN2S(C)(=O)=O [Example 113, 6-(3-cyanopyrrolo[1,2-b]pyridazin-7-yl)-N-((R)-2-fluoro-3-hydroxy-3-methylbutyl)-4-(((1S,4S,5S)-2-(methylsulfonyl)-2-azabicyclo[2.2.1]heptan-5-yl)amino)nicotinamide]
EC50 (TNFα; [1]): 3670 nM | IC50 (IRAK4 enzyme; TR-FRET): 22 nM

COC(=O)NC1CC2(C1)CC(Nc1cc(-c3ccc4cc(C#N)cnn34)ncc1C(=O)NC[C@@H](F)C(C)(C)O)C2 (single isomer, unassigned) [Example 756]
EC50 (TNFα; TNFα content): 59 nM | IC50 (IRAK4 enzyme; TR-FRET (HTRF)): 1 nM

CC1(C(=O)NC[C@H]2C[C@H](Nc3cc(-c4ccc5cc(C#N)cnn45)ncc3C(=O)NC[C@@H](F)C(C)(C)O)C2)CC1 [Example 827, 6-(3-cyanopyrrolo[1,2-b]pyridazin-7-yl)-N-((R)-2-fluoro-3-hydroxy-3-methylbutyl)-4-(((1r,3R)-3-((1-methylcyclopropane-1-carboxamido)methyl)cyclo-butyl)amino)nicotinamide]
EC50 (TNFα; [2]): 15 nM | IC50 (IRAK4 enzyme; TR-FRET): < 1 nM

CC(C)(O)[C@H](F)CNC(=O)c1cnc(-c2ccc3cc(C#N)cnn23)cc1NC12CCC(N3CCOCC3)(CC1)CC2 [Example 780, (R)-6-(3-cyanopyrrolo[1,2-b]pyridazin-7-yl)-N-(2-fluoro-3-hydroxy-3-methylbutyl)-4-((4-morpholinobicyclo[2.2.2]octan-1-yl)amino)nicotinamide]
EC50 (TNFα; [1]): 38 nM | IC50 (IRAK4 enzyme; TR-FRET (HTRF)): 1 nM

CNC(=O)c1cnc(-c2ccc3cc(C#N)cnn23)cc1N[C@@H]1CC[C@H](C(=O)NC)C1 [Example 469, 6-(3-cyanopyrrolo[1,2-b]pyridazin-7-yl)-N-methyl-4-(((1R,3S)-3-(methylcarbamoyl)cyclo-pentyl)amino)nicotinamide]
EC50 (TNFα; [1]): 1100 nM | IC50 (IRAK4 enzyme; TR-FRET (HTRF)): 41 nM

CC(C)(O)[C@H](F)CNC(=O)c1cnc(-c2ccc3cc(C#N)cnn23)cc1Nc1ccc(C(N)=O)nc1 [Example 601, (R)-5-((2-(3-cyano-pyrrolo[1,2-b]pyridazin-7-yl)-5-((2-fluoro-3-hydroxy-3-methylbutyl)carbamoyl)pyridin-4-yl)amino) picolinamide]
EC50 (TNFα; [1]): 64 nM | IC50 (IRAK4 enzyme; TR-FRET (HTRF)): < 1 nM

CC1(C)C(=O)Nc2ccc(Nc3cc(-c4ccc5cc(C#N)cnn45)ncc3C(=O)NC[C@@H](F)C(C)(C)O)cc21 [Example 653, (R)-6-(3-cyanopyrrolo[1,2-b]pyridazin-7-yl)-4-((3,3-dimethyl-2-oxoindolin-5-yl)amino)-N-(2-fluoro-3-hydroxy-3-methylbutyl) nicotinamide]
EC50 (TNFα; [1]): 201 nM | IC50 (IRAK4 enzyme; TR-FRET (HTRF)): 3 nM

NC(=O)c1cnn2c(-c3cc(NC45CCC(O)(CC4)CC5)c(C(=O)NCC(F)(F)C(=O)N4CC(F)(F)C4)cn3)ccc2c1 [Example 963, 7-(5-((3-(3,3-difluoro-azetidin-1-yl)-2,2-difluoro-3-oxopropyl)carbamoyl)-4-((4-hydroxybicyclo[2.2.2]octan-1-yl)amino)pyridin-2-yl)pyrrolo[1,2-b]pyridazine-3-carboxamide]
EC50 (TNFα; [2]): > 10000 nM | IC50 (IRAK4 enzyme; TR-FRET): 394 nM

CC(C)(O)[C@H](F)CNC(=O)c1cnc(-c2ccc3cc(C#N)cnn23)cc1Nc1ncc(C#N)cn1 [Example 420, (R)-4-((5-cyanopyrimidin-2-yl)amino)-6-(3-cyano-pyrrolo[1,2-b]pyridazin-7-yl)-N-(2-fluoro-3-hydroxy-3-methylbutyl)nicotinamide]
EC50 (TNFα; [1]): 122 nM | IC50 (IRAK4 enzyme; TR-FRET (HTRF)): 6 nM

CC(C)(O)[C@H](F)CNC(=O)c1cnc(-c2ccc3cc(C#N)cnn23)cc1Nc1ccc(-n2ccnc2)nc1 [Example 768, (R)-4-((6-(1H-imidazol-1-yl)pyridin-3-yl)amino)-6-(3-cyanopyrrolo[1,2-b]pyridazin-7-yl)-N-(2-fluoro-3-hydroxy-3-methyl-butyl)nicotinamide]
EC50 (TNFα; [1]): 24 nM | IC50 (IRAK4 enzyme; TR-FRET (HTRF)): < 1 nM

CC(C)(O)[C@H](F)CNC(=O)c1cnc(-c2ccc3cc(C#N)cnn23)cc1NC1CCN(C2CC2)CC1 [Example 115, (R)-6-(3-cyanopyrrolo[1,2-b]pyridazin-7-yl)-4-((1-cyclopropylpiperidin-4-yl)amino)-N-(2-fluoro-3-hydroxy-3-methylbutyl)nicotinamide]
EC50 (TNFα; [1]): 196 nM | IC50 (IRAK4 enzyme; TR-FRET): 4 nM

CCn1cc(Nc2cc(-c3ccc4cc(C#N)cnn34)ncc2C(=O)NC[C@@H](F)C(C)(C)O)cn1 [Example 56, (R)-6-(3-cyanopyrrolo[1,2-b]pyridazin-7-yl)-4-((1-ethyl-1H-pyrazol-4-yl)amino)-N-(2-fluoro-3-hydroxy-3-methylbutyl)nicotinamide]
EC50 (TNFα; [1]): 13 nM | IC50 (IRAK4 enzyme; TR-FRET): < 1 nM

CC(C)(O)[C@H](F)CNC(=O)c1cnc(-c2ccc3cc(C#N)cnn23)cc1Nc1ccc(-c2cn[nH]c2)cc1 [Example 178, (R)-4-((4-(1H-pyrazol-4-yl)phenyl)amino)-6-(3-cyanopyrrolo[1,2-b]pyridazin-7-yl)-N-(2-fluoro-3-hydroxy-3-methylbutyl)nicotinamide]
EC50 (TNFα; [1]): 10 nM | IC50 (IRAK4 enzyme; TR-FRET): < 1 nM

N#Cc1cnn2c(-c3cc(N[C@H]4CCC[C@@H](O)C4)c(C(=O)NC4(C#N)CC4)cn3)ccc2c1 [Example 513, N-(1-cyanocyclopropyl)-6-(3-cyanopyrrolo[1,2-b]pyridazin-7-yl)-4-(((1S,3R)-3-hydroxy-cyclohexyl)amino) nicotinamide]
EC50 (TNFα; [1]): 110 nM | IC50 (IRAK4 enzyme; TR-FRET (HTRF)): 2 nM

COC(=O)NC[C@H]1C[C@H](Nc2cc(-c3ccc4cc(C#N)cnn34)ncc2C(=O)NCC(=O)C(C)(C)O)C1 [Example 815, methyl (((1r,3r)-3-((2-(3-cyanopyrrolo[1,2-b]pyridazin-7-yl)-5-((3-hydroxy-3-methyl-2-oxobutyl)carbamoyl)pyridin-4-yl)amino)cyclo-butyl)methyl)carbamate]
EC50 (TNFα; [2]): 15 nM | IC50 (IRAK4 enzyme; TR-FRET): < 1 nM

CC(C)(O)[C@H](F)CNC(=O)c1cnc(-c2ccc3cc(C#N)cnn23)cc1N[C@H]1CC[C@](C)(O)CC1 [Example 445, 6-(3-cyanopyrrolo[1,2-b]pyridazin-7-yl)-N-((R)-2-fluoro-3-hydroxy-3-methylbutyl)-4-(((1r,4R)-4-hydroxy-4-methylcyclo-hexyl)amino)nicotinamide]
EC50 (TNFα; [1]): 59 nM | IC50 (IRAK4 enzyme; TR-FRET (HTRF)): 1 nM

COC(=O)NCCCNc1cc(-c2ccc3cc(C#N)cnn23)ncc1C(=O)NC[C@@H](F)C(C)(C)O [Example 716, (R)-methyl (3-((2-(3-cyanopyrrolo[1,2-b]pyridazin-7-yl)-5-((2-fluoro-3-hydroxy-3-methylbutyl)carbamoyl)pyridin-4-yl)amino)propyl)carbamate]
EC50 (TNFα; [1]): 55 nM | IC50 (IRAK4 enzyme; TR-FRET (HTRF)): < 1 nM

CC(C)(C#N)c1ccc(Nc2cc(-c3ccc4cc(C#N)cnn34)ncc2C(=O)NC[C@@H](F)C(C)(C)O)cn1 [Example 683, (R)-4-((6-(2-cyanopropan-2-yl)pyridin-3-yl)amino)-6-(3-cyanopyrrolo[1,2-b]pyridazin-7-yl)-N-(2-fluoro-3-hydroxy-3-methyl-butyl)nicotinamide]
EC50 (TNFα; [1]): 45 nM | IC50 (IRAK4 enzyme; TR-FRET (HTRF)): 1 nM

CN(C)C(=O)CCNC(=O)c1cnc(-c2ccc3cc(C#N)cnn23)cc1NC12CCC(O)(CC1)CC2 [Example 804, 6-(3-cyanopyrrolo[1,2-b]pyridazin-7-yl)-N-(3-(dimethylamino)-3-oxo-propyl)-4-((4-hydroxy-bicyclo[2.2.2]octan-1-yl)amino)nicotinamide]
EC50 (TNFα; [2]): 48 nM | IC50 (IRAK4 enzyme; TR-FRET): < 1 nM

CC(C)(O)[C@H](F)CNC(=O)c1cnc(-c2ccc3cc(C#N)cnn23)cc1N[C@H]1C[C@H](COC(=O)NC2CC2)C1 [Example 735, ((1R,3r)-3-((2-(3-cyano-pyrrolo[1,2-b]pyridazin-7-yl)-5-(((R)-2-fluoro-3-hydroxy-3-methylbutyl)carbamoyl)pyridin-4-yl)amino)cyclobutyl)methyl cyclopropylcarbamate]
EC50 (TNFα; [1]): 100 nM | IC50 (IRAK4 enzyme; TR-FRET (HTRF)): 1 nM

N#Cc1cnn2c(-c3cc(Nc4cccnc4)c(C(=O)N[C@H]4CC[C@H](NC(=O)C5CC5)CC4)cn3)ccc2c1 [Example 502, 6-(3-cyanopyrrolo[1,2-b]pyridazin-7-yl)-N-((1r,4r)-4-(cyclopropane-carboxamido)cyclohexyl)-4-(pyridin-3-ylamino) nicotinamide]
EC50 (TNFα; [1]): 93 nM | IC50 (IRAK4 enzyme; TR-FRET (HTRF)): 1 nM

CC(C)(O)[C@H](F)CNC(=O)c1cnc(-c2ccc3cc(C#N)cnn23)cc1-c1ccc2cc(C#N)cnn12 [Example 693, (R)-4,6-bis(3-cyano-pyrrolo[1,2-b]pyridazin-7-yl)-N-(2-fluoro-3-hydroxy-3-methylbutyl)nicotinamide]
EC50 (TNFα; [1]): 821 nM | IC50 (IRAK4 enzyme; TR-FRET (HTRF)): 35 nM

COC(=O)N1C[C@@H]2[C@H](C1)[C@H]2Nc1cc(-c2ccc3cc(C#N)cnn23)ncc1C(=O)NC[C@@H](F)C(C)(C)O [Example 722, (1R,5S,6s)-methyl 6-((2-(3-cyanopyrrolo[1,2-b]pyridazin-7-yl)-5-(((R)-2-fluoro-3-hydroxy-3-methyl-butyl)carbamoyl)pyridin-4-yl)amino)-3-aza-bicyclo[3.1.0]hexane-3-carboxylate]
EC50 (TNFα; [1]): 35 nM | IC50 (IRAK4 enzyme; TR-FRET (HTRF)): < 1 nM

[2H]C([2H])([2H])OC(=O)NC12CCC(Nc3cc(-c4ccc5cc(C#N)cnn45)ncc3C(=O)NC[C@@H](F)C(C)(C)O)(CC1)CC2 [Example 283, methyl-d3 (R)-(4-((2-(3-cyanopyrrolo[1,2-b]pyridazin-7-yl)-5-((2-fluoro-3-hydroxy-3-methylbutyl)carbamoyl)pyridin-4-yl)amino)bicyclo[2.2.2]octan-1-yl)carbamate]
EC50 (TNFα; [1]): 14 nM | IC50 (IRAK4 enzyme; TR-FRET): 1 nM

CC(C)Nc1cc(-c2ccc3cc(C#N)cnn23)ncc1C(=O)NCCCS(C)(=O)=O [Example 85, 6-(3-cyanopyrrolo[1,2-b]pyridazin-7-yl)-4-(isopropyl-amino)-N-(3-(methylsulfonyl)propyl) nicotinamide]
EC50 (TNFα; [1]): 67 nM | IC50 (IRAK4 enzyme; TR-FRET): 1 nM
